Data taken from patent publication US20080124310A1, “Bead based receptor biology” (priority 2006, published 2008).
“Also recorded” adds a separate entry of the source.

Experiments:
PI3K pathway to PIP3 = assay: PIP3 accumulation at site of IgG coated particles measured with AKT/PH-GFP; type: cell-based, murine
Experimental: FIG. 27 illustrates the use of PiP3 binding PH domains to screen atherosclerosis drugs in macrophages.
The PI3K pathway that converts PIP4, 5 bis-phosphate to PIP3, 4, 5, triphosphate, also called PIP3. PIP3 is measured by the Pleckstrin Homology (PH) domain of the protein kinase AKT, that has a high affinity for PIP3, fused to GFP (AKT/PH-GFP). The accumulation of phosphatidyl inositol triphosphate at the site of IgG coated particles was inhibited using wortamannin, and LY294002 dissolved into the cell experimental media.

[1] = system: sheep red blood cells phagocytosis; assay: Phagocytosis of sheep red blood cells; type: cell-based; details: 15 to 30 minute incubation
RAW cells = assay: Cellular cholesterol extraction, filipin staining; type: cell-based, murine; details: brief incubation
From the text: Cholesterol levels were quantified by the esterase assay, oil red- and filipin-staining.

RAW 264.7 macrophages = assay: Phagocytic receptor assay: engulfment of IgG or ligand coated particles by RAW macrophages (foam cell model), confocal; type: cell-based, murine; details: for engulfment / accumulation of IgG or ligand coated particles: RAW macrophages, confocal
From the text: FIG. 25, panels A and B, illustrate respectfully a method for measurement of phagocytic receptors and a method for measuring transfection or delivery of nucleic acids and simultaneous measurement of particle engulfment using a single cell multi label confocal microscope experiment. A direct or surrogate measurement of receptor function or receptor pathway activity must be made in order establish the role of potential therapeutic target proteins in receptor function. IgG, complement, low density lipoprotein (LDL), oxidatively modified LDL (OX-LDL). Acetyl-LDL, apolipoproteins, lipoproteins, lipopolysaccharide (LPS), scavenger and other receptor functions can be measured by the accumulation of particles. The particles may themselves be comprised in part of fluorescent materials or can be directly stained with fluorescent or other colored materials or can be bound by proteins that directly or indirectly permit the attachment of fluorescent, chemiluminescent or other reporter molecules. The beads may be stained in live cells or cells fixed with formalin or paraformaldehyde or organic solvents such as alcohol and acids or by other means. The beads can be stained both before or after internalization with or without the permeabilization of the cells by detergents or organic solvents. The beads may be cells that can be lysed and imaged directly. The cells may be counter stained for the presence of specific proteins using antibodies or may express fluorescent protein constructs or contain fluorescent silencing RNA or DNA constructs or biopolymer modulating agents or drugs (FIG. 25).
We created a foam cell model and quantitative confocal assays for micro particle engulfment by macrophages. The engulfment of particles by macrophages and the generation of free radicals by leukocytes are the key physiological actions that lead to the generation of foam cells that are the center of atherosclerotic plaques. We made a cellular model system of foam cells or activated leukocytes and examine the effects of moderate levels of alcohol over time on the accumulation of particles and generation of free radicals at the site of particle accumulation compared to statins and propranolol. The model systems will consist of RAW macrophages that engulf hydrophobic polystyrene microparticles with or without coating by ligands or mixtures of ligands such as those found in cellular growth media, or free fluorescently labeled DI-LDL, OX-LDL, Acetyl LDL or other. Live cell confocal microscopy was used to quantify the effects of ethanol, compared to lovastatin and propranolol, on particle engulfment.
External particles were stained green with secondary anti rabbit FITC and then cells were permeablized and all particles stained red with secondary anti rabbit CY3. Thus engulfed particles appear red while external particles appear yellow. Beads within the cells carrying only the red signal (engulfed) and not also the green signal {red+green=yellow} (outside) were quantified for accumulation assays using both total fluorescence in the green channel and by counting individual beads in three fields on three independent cover slips for each concentration.
RAW 264.7 macrophages were cultured in alpha MEM with 5% fetal calf serum as described. The effects of lovastatin on IgG and LDL coated micro-particle engulfment at 0, 50 nM, 100 nM, 500 nM, 1 mM and higher was tested. The accumulation of free DI-LDL was quantified directly by its red fluorescence. External particles were stained green with secondary anti rabbit FITC and then cells were permeablized and all particles stained red with secondary anti rabbit CY3. Thus engulfed particles appear red while external particles appear yellow.

PLC = details: PLC-delta PH domain
From the text: The metabolic activation of the receptor pathway at the binding site of modified beads such as ligand coated particles may be detected, measured and quantified using green fluorescence protein (GFP) fused with binding domains specific to different biopolymers, or modified biopolymers or metabolites in including phosphorylations at the site of modified particle or bead or binding.

[2] = system: PLD/PAP-1 pathway (DAG production); assay: DAG production at site of particle engulfment measured with PKC/C2-GFP; type: cell-based, murine
From the text: FIG. 28 illustrates use of DAG binding domains to screen for atherosclerosis drugs in macrophages.

human neutrophils = assay: fMLP induced oxidative burst, cytochrome C reduction assay; type: cell-based
RAW macrophages = assay: Biochemical measurement of protein levels in fractions of drug treated RAW macrophages; type: cell-based, murine; details: FIG. 67 cytosol fractions
From the text: A now well established side effect of ethanol is to prevent heart attack. Thus the common effects of statins, propranolol, and ethanol must be closely linked to the central mechanism that is the most important pharmacological target of heart attack and thus atherosclerosis prevention. It remains possible that the preventative effect of statins results from their effect to inhibit particle engulfment and foam cell formation by macrophages leading to atherosclerotic plaques. We created a foam cell model and quantitative confocal assays for micro particle engulfment by macrophages. The engulfment of particles by macrophages and the generation of free radicals by leukocytes are the key physiological actions that lead to the generation of foam cells that are the center of atherosclerotic plaques. We have made a cellular model system of leukocytes or activated leukocytes or leukocytes treated over time to examine the effects drugs and biopolymer modification materials over time on the activation of receptors at the site of modified or ligand coated particles. The drugs used in this system to examine the kinetics of receptor function at modified particles may result in changes to the cell including changes in gene expression at the level of DNA transcription, RNA production, accumulation or post-transcription processing, mRNA production accumulation or expression all of which may also alter protein expression. We examined the use of these model systems with and without beads as a system to screen the effects of drugs that are known to prevent heart attack and stroke in model of leukocyte cells within atherosclerotic plaques. We observe that drugs that effect receptor associated signaling may also alter gene, RNA or ultimately protein expression in cells resulting in changes in protein levels. Proteins that change levels in response to a drug may be themselves drug target proteins.
The drugs used in the leukocyte model system to examine the kinetics of receptor function at modified particles may result in changes to the cell including changes in gene expression at the level of DNA transcription, RNA production, accumulation or post-transcription processing, mRNA production accumulation or expression all of which may also alter protein expression. We examined the use of these model systems with and without beads as a system to screen the effects of drugs that are known to effect receptor response at or near the cell surface or interior of the cells. We observe that drugs that effect receptor associated signaling may also alter gene, RNA or ultimately protein expression in cells resulting in changes in protein levels. Proteins that change levels in response to a drug may be themselves drug target proteins. […] The RAW leukocyte model foam cells system alone or in combination with the bead based biology system can be used to characterize the effects of receptor or cellular activation in terms of second messengers such as lipid and protein phosphorylation with respect to drug treatment or time in the cytosol of leukocytes (FIG. 67).

[3] = in vivo; cited from earlier work
PLD pathway = details: 500 micromolar; cited from earlier work
[4] = listed as Methyl-beta-cyclo-dextrin
[5] = listed as methyl beta cyclo dextrin

Compound: methyl-beta cyclodextrin [MBCD]
- accumulation of PIP3 at the site of IgG coated particles (PI3K pathway to PIP3): did not prevent
- phagocytosis of sheep red blood cells [1]: no effect
- extraction of cellular cholesterol (RAW cells; [4]): highly effective cholesterol scavenger
- extraction of cellular cholesterol (RAW cells; [5]): effective to extract cholesterol
- engulfment / accumulation of IgG or ligand coated particles (RAW 264.7 macrophages): no effect on particle engulfment
- engulfment / accumulation of IgG or ligand coated particles (RAW 264.7 macrophages; [4]): no effect on particle accumulation
- engulfment / accumulation of IgG or ligand coated particles (RAW 264.7 macrophages; [5]): little inhibitory effect

Compound: CCO [ethanol]
- PIP2 catalysis by PLC (PLC): neither EtOH, HELSS or propranolol interfere with the catalytic action of PLC
- accumulation of PIP3 at the site of IgG coated particles (PI3K pathway to PIP3): no side effect on the PI3K pathway to PIP3
- DAG production at the site of ligand coated bead binding [2]: prohibit DAG production
- engulfment / accumulation of IgG or ligand coated particles (RAW 264.7 macrophages): prevent particle accumulation
- fMLP induced oxidative burst (super oxide radicals) (human neutrophils): inhibited the fMLP induced oxidative burst in a dose dependant manner

Compound: CC(C)(C)NCC(O)COc1cccc2c1CC(O)C(O)C2 (centres unmarked) [nadolol]
- engulfment / accumulation of IgG or ligand coated particles (RAW 264.7 macrophages): do not inhibit particle engulfment
- fMLP induced oxidative burst (super oxide radicals) (human neutrophils): not as effective as the PAP-1 inhibitor propranolol

Compound: CC(C)NCC(O)COc1cccc2[nH]ccc12 (centres unmarked) [pindolol]
- engulfment / accumulation of IgG or ligand coated particles (RAW 264.7 macrophages): do not inhibit particle engulfment
- fMLP induced oxidative burst (super oxide radicals) (human neutrophils): not as effective as the PAP-1 inhibitor propranolol

Compound: CC(C)(C)n1nc(-c2ccc(Cl)cc2)c2c(N)ncnc21 [PP2]
- engulfment / accumulation of IgG or ligand coated particles (RAW 264.7 macrophages): inhibited

Compound: COCCc1ccc(OCC(O)CNC(C)C)cc1 (centres unmarked) [metoprolol]
- engulfment / accumulation of IgG or ligand coated particles (RAW 264.7 macrophages): do not inhibit particle engulfment
- fMLP induced oxidative burst (super oxide radicals) (human neutrophils): not as effective as the PAP-1 inhibitor propranolol

Compound: CCCCCCCC(=O)OCC(CO)OC(=O)CCCCCCC (centres unmarked) [DiC8]
- reversal of PLD pathway inhibitor effect on particle engulfment (RAW 264.7 macrophages; add-back of PLD pathway product): the effect is reversed by DiC8

Compound: [F][Al-]([F])([F])[F] [AlF4]
- levels of proteins after G protein stimulatory drug (FIG. 67) (RAW macrophages): alter levels of proteins in the membranes

Compound: CCCC(=O)Nc1ccc(OCC(O)CNC(C)C)c(C(C)=O)c1 (centres unmarked) [acetbutolol]
- engulfment / accumulation of IgG or ligand coated particles (RAW 264.7 macrophages): do not inhibit particle engulfment
- fMLP induced oxidative burst (super oxide radicals) (human neutrophils): not as effective as the PAP-1 inhibitor propranolol

Compound: CCCCC/C=C\C/C=C\C/C=C\C/C=C\CCCC(=O)C(F)(F)F [AACOCF3]
- DAG production at the site of ligand coated bead binding [2]: Neither MAFP nor AACOCF3 prevent DAG production
- fMLP induced oxidative burst (super oxide radicals) (human neutrophils): little effect on the oxidative burst

Compound: C=C1[C@@H](C)[C@H]2[C@H](Cc3ccccc3)NC(=O)[C@]23[C@H](OC(C)=O)/C=C/[C@@](C)(O)C(=O)[C@@H](C)C/C=C/[C@H]3[C@@H]1O [cytochalasin D]
- accumulation of PIP3 at the site of IgG coated particles (PI3K pathway to PIP3): inhibited

Compound: CC(C)NCC(O)COc1cccc2ccccc12 (centres unmarked) [propranolol]
- PIP2 catalysis by PLC (PLC): neither EtOH, HELSS or propranolol interfere with the catalytic action of PLC
- accumulation of PIP3 at the site of IgG coated particles (PI3K pathway to PIP3): no side effect on the PI3K pathway to PIP3
- decrease in rate of heart attack [3]: about 35%
- DAG production at the site of ligand coated bead binding [2]: prohibit DAG production
- engulfment / accumulation of IgG or ligand coated particles (RAW 264.7 macrophages): prevent particle accumulation
- engulfment / accumulation of IgG or ligand coated particles (RAW 264.7 macrophages; listed as Propranolol): had the largest effect in preventing the engulfment
- fMLP induced oxidative burst (super oxide radicals) (human neutrophils): inhibited the fMLP induced oxidative burst in a dose dependant manner; also recorded: much greater effect in preventing the generation of free radicals
- effect in in vitro experiments (PLD pathway): little effect

Compound: CC(C)NCC(O)COc1ccc(CC(N)=O)cc1 (centres unmarked) [atenolol]
- engulfment / accumulation of IgG or ligand coated particles (RAW 264.7 macrophages): do not inhibit particle engulfment
- fMLP induced oxidative burst (super oxide radicals) (human neutrophils): not as effective as the PAP-1 inhibitor propranolol

Compound: O=C1O/C(=C/Br)CCC1c1cccc2ccccc12 (centres unmarked) [HELSS]
- PIP2 catalysis by PLC (PLC): neither EtOH, HELSS or propranolol interfere with the catalytic action of PLC
- accumulation of PIP3 at the site of IgG coated particles (PI3K pathway to PIP3): no side effect on the PI3K pathway to PIP3
- DAG production at the site of ligand coated bead binding [2]: prohibit DAG production; also recorded: inhibitory effect
- engulfment / accumulation of IgG or ligand coated particles (RAW 264.7 macrophages): prevent particle accumulation
- fMLP induced oxidative burst (super oxide radicals) (human neutrophils): inhibited the fMLP induced oxidative burst in a dose dependant manner
